For data set [1], the system named is UO-31 cells. As to the kind of experiment: Annexin V-FITC/PI apoptosis assay. In kind it is cell-based, human. As to conditions: for late apoptotic cells (UR) / early apoptotic cells (LR): UO-31, annexin V-FITC/PI; for late apoptotic cells (UR): control 0.29%; for early apoptotic cells (LR): control 0.85%. As to the method:
To explore whether the anti-proliferative activity of diamide-based sulfonamides 5a and 5h is consistent with the induction of apoptosis within the UO-31 cancer cells, Annexin V-FITC/propidium iodide (AV/PI) dual staining assay was performed by flow cytometry (Figure 4).
Assay of the phosphatidylserine externalization was carried out using Annexin V-FITC/PI apoptosis detection kit (BD Biosciences, San Jose, CA, USA) following the manufacturer’s instructions, as reported previously.

The test system of data set [2] is renal cancer UO-31 cell line. As to the kind of experiment: MTT anti-proliferative assay. In kind it is cell-based. As to conditions: Homo sapiens, mean ± S.D. of three separate experiments.
Protocol: Staurosporine was adopted in the experiment as a reference anticancer drug.
Renal cancer UO-31 cell line was obtained from American Type Culture Collection (ATCC). UO-31 cells were seeded into 96-well plates at 1.8 x 10^4/well. Cells were grown in DMEM, and supplemented with 10% heat-inactivated fetal bovine serum, 1% L-glutamine (2.5 mM), HEPES buffer (10 mM), 50 μg/mL gentamycin.
Data set [3] relates to panel of sixty cancer cell lines. As to the kind of experiment: NCI one-dose SRB assay, whole panel. In kind it is cell-based. The conditions noted are these: Homo sapiens, mean over the panel, 1.00E-5 Molar, read-out: Mean Growth Percent. As to the method:
(§1) First, all diamide-based benzenesulfonamides herein reported 5a–h were screened for their antitumor activity at one dose (10^−5 M) assay against a panel of sixty cancer cell lines through the National Cancer Institute (NCI) Developmental Therapeutic Program (www.dtp.nci.nih.gov), according to US-NCI protocol. The cell growth and cell viability were evaluated using the sulforhodamine B (SRB) colorimetric assay.
(§2) This assay was carried out according to the protocol of the Drug Evaluation Branch, NCI, Bethesda. The cell growth and cell viability were evaluated using the sulforhodamine B (SRB) colorimetric assay, as reported earlier.

Another data set deals with UO-31. As to the kind of experiment: NCI one-dose SRB assay. The class given is cell-based. The conditions noted are these: Homo sapiens; for activity at 10 µM: UO-31 (Renal Cancer), 1.00E-5 Molar, one dose, read-out: Growth Percent. How it is done:
as §1
The obtained data were reported as mean-graph of the percentage growth of the different treated tumour cells (Supplementary Materials). Exploration of results for this assay confirmed that the examined diamide-based benzenesulfonamides 5a–h had non-significant activity towards most NCI cancer cell lines.
as §2

Data set [4] deals with UO-31 cells. As to the kind of experiment: cell cycle analysis, DNA flow cytometry. The conditions noted are these: UO-31, at IC50 concentration, 24 h. The class given is cell-based, human. How it is done: The effect of diamide-based benzenesulfonamides 5a and 5h on cell cycle progression was examined in renal UO-31 cancer cells, through a DNA flow cytometric assay (Figure 3).
Then, the treated cells were collected by centrifugation, fixed in ice-cold 70% (v/v) ethanol, washed with PBS, re-suspended with RNase (100 μg/mL), stained with PI (40 μg/mL), and analyzed by flow cytometry using FACS Calibur (Becton Dickinson, BD, USA). The cell cycle distributions were calculated utilizing CellQuest software 5.1 (Becton Dickinson).

The subject of another data set is BT-549. In words: NCI one-dose SRB assay. The class given is cell-based, human. As to conditions: BT-549 (Breast Cancer), 1.00E-5 Molar. In short, it runs like this:
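Using the US-NCI one-dose format, the sixty cancer cell lines received compound at 10^−5 M, and sulforhodamine B colorimetry was used to assess growth and viability.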

Turning to `NS(=O)(=O)c1ccc(NC(=O)C(=Cc2ccc(Cl)cc2)NC(=O)c2ccccc2)cc1` [Compound 5a, N-(1-(4-Chlorophenyl)-3-oxo-3-((4-sulfamoylphenyl)amino)prop-1-en-2-yl)benzamide], the melting point was in the range of 255 to 258 °C. Moreover, in the data set on UO-31 cells [1], the “late apoptotic cells (UR)” value is given as 22.96% and the “early apoptotic cells (LR)” value was determined as 2.64%. The molecule further showed an IC50 in data set [2] of 6.53 ± 0.38 µM. In addition, in data set [3], the activity at 10 µM was 100%. In the data set on UO-31, the activity at 10 µM is 78.7%. Moreover, in the data set on UO-31 cells [4], the “arrest in G2-M phase compared to control” value was 2.2 fold and the “increase in percentage of cells at Sub-G1 compared to control” value came to 14 fold.

Turning to `NS(=O)(=O)c1ccc(NC(=O)C(=Cc2ccc(Cl)cc2Cl)NC(=O)c2ccccc2)cc1` [Compound 5b, N-(1-(2,4-Dichlorophenyl)-3-oxo-3-((4-sulfamoylphenyl)amino)prop-1-en-2-yl)benzamide], the melting point was in the range of 265 to 267 °C. This molecule registered an IC50 in data set [2] of 16.7 ± 0.92 µM. Besides, in data set [3], the activity at 10 µM was found to be 97%. Also, the activity at 10 µM in the data set on UO-31 is 75.8%. For the same molecule, the “Growth Percent” value in the data set with BT-549 turned out to be 89.13%.

Consider `NS(=O)(=O)c1ccc(NC(=O)C(=Cc2ccc(Br)cc2)NC(=O)c2ccccc2)cc1` [Compound 5c, N-(1-(4-Bromophenyl)-3-oxo-3-((4-sulfamoylphenyl)amino)prop-1-en-2-yl)benzamide], for which the melting point is 210 to 212 °C. In addition, in data set [3], the activity at 10 µM came out at 97.3%. Further, the activity at 10 µM in the data set on UO-31 is 77.2%.

`Cc1ccc(C=C(NC(=O)c2ccccc2)C(=O)Nc2ccc(S(N)(=O)=O)cc2)cc1` [Compound 5d, N-(3-Oxo-3-((4-sulfamoylphenyl)amino)-1-(p-tolyl)prop-1-en-2-yl)benzamide] showed a melting point of 255 to 258 °C. Further, the activity at 10 µM in data set [3] amounted to 102%. Besides, the activity at 10 µM in the data set on UO-31 was 87%. In addition, the “Growth Percent” value with BT-549 was found to be 105.04%.

For `COc1ccc(C=C(NC(=O)c2ccccc2)C(=O)Nc2ccc(S(N)(=O)=O)cc2)cc1` [Compound 5e, N-(1-(4-Methoxyphenyl)-3-oxo-3-((4-sulfamoylphenyl)amino)prop-1-en-2-yl)benzamide], the activity at 10 µM in data set [3] was 103%; in the data set on UO-31, 86.4%.

Consider `COc1ccc(C=C(NC(=O)c2ccccc2)C(=O)Nc2ccc(S(N)(=O)=O)cc2)c(OC)c1` [Compound 5f, N-(1-(2,4-Dimethoxyphenyl)-3-oxo-3-((4-sulfamoylphenyl)amino)prop-1-en-2-yl)benzamide], for which the melting point lay within 245 to 250 °C. The activity at 10 µM in data set [3] worked out at 103%. Moreover, the activity at 10 µM in the data set with UO-31 was determined as 82.5%.

As for `COc1ccc(C=C(NC(=O)c2ccccc2)C(=O)Nc2ccc(S(N)(=O)=O)cc2)cc1OC` [Compound 5g, N-(1-(3,4-Dimethoxyphenyl)-3-oxo-3-((4-sulfamoylphenyl)amino)prop-1-en-2-yl)benzamide], the melting point is 250 to 253 °C. Further, the activity at 10 µM in data set [3] was found to be 103%. Besides, in the data set with UO-31, the activity at 10 µM amounted to 77.9%.

As for `Cc1ccc(C=C(NC(=O)c2ccccc2)C(=O)Nc2ccc(S(N)(=O)=O)cc2)o1` [Compound 5h, N-(1-(5-Methylfuran-2-yl)-3-oxo-3-((4-sulfamoylphenyl)amino)prop-1-en-2-yl)benzamide], the melting point is 240 to 243 °C. The “total increase in annexin V-FITC positive apoptotic cells (UR + LR) compared with control” value with UO-31 cells [1] (UO-31) was determined as 26.5 fold. Also, in the data set with UO-31 cells [1], the “late apoptotic cells (UR)” value is given as 21.85% and the “early apoptotic cells (LR)” value stood at 8.41%. The molecule further showed an IC50 in data set [2] of 4.89 ± 0.22 µM. The activity at 10 µM in data set [3] was determined as 94.6%. Besides, the activity at 10 µM with UO-31 worked out at 65.2%. Also, in the data set on UO-31 (UO-31, one dose 10^−5 M, read-out: percentage growth inhibition (GI%)), the inhibition at 10 µM amounted to 35%. For the same molecule, in the data set with UO-31 cells [4], the “arrest in G2-M phase compared to control” value is listed as 2.5 fold and the “increase in percentage of cells at Sub-G1 compared to control” value is reported as 15.5 fold.

These data come from paper PMC6566410, “Novel Diamide-Based Benzenesulfonamides as Selective Carbonic Anhydrase IX Inhibitors Endowed with Antitumor Activity: Synthesis, Biological Evaluation and In Silico Insights” (International Journal of Molecular Sciences, 2019).
